This is an account of results in PubChem BioAssay AID1902 (Broad Institute, 2009).

Activity calls are given as the source filed them.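 How the source made its calls: active means EC50 no more than a set limit of log units above the highest dose; inactive means the rest.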

The target in the experiment is S. pyogenes SKKanGAS, kanamycin survival, BacTiterGlo, 6 h. Description: S. pyogenes SKKanGAS kanamycin growth inhibitors – SKKanGAS strain, luminescence, dose confirmation, streptokinase promoter inhibitor project, dose response (AID 1902).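 Further: lower survival reflects blocked streptokinase promoter driving kanamycin resistance gene.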
On to `CCCCCCCC(=O)NNC(=O)c1c(O)c2ccccc2n(CC)c1=O`, for which the EC50 was 1.3 µM. As for `CC(C)Cn1c(=O)c(C(=O)Nc2ccccc2S(N)(=O)=O)c(O)c2ccccc21`, the EC50 was 8.58 µM.

As for `O=C(N/N=C/c1cc(Br)ccc1O)C(=O)Nc1ccccc1OC(F)(F)C(F)F`, the 50% effective concentration (EC50) is 1.44 µM. The same measure for `Cc1cc(C)n(-c2nc(Nc3ccccc3C)nc(-n3nc(C)cc3C)n2)n1`: 5.32 µM; for `Cc1ccc(-n2c(SCC(=O)Nc3ccc4c5c(cccc35)CC4)nc(O)cc2=O)cc1`: 11.9 µM; for `CC1=NN(c2ccc([N+](=O)[O-])cc2)C(=O)/C1=C\N(C)C`: 7.94 µM.

On to `Cc1ncc(CO)c(/C=N/NC(=O)c2cc(Br)ccc2O)c1O`, for which the 50% effective concentration (EC50) was 1.52 µM. In the case of `Cc1cc(/C=C2\SC(=S)NC2=O)c(C)n1-c1ccc(O)cc1` it was 1.1 µM; in that of `COc1cccc(N2CCN(c3ncnc4c3[nH]c3ccc(F)cc34)CC2C)c1` (stereo not drawn), 6.85 µM. Regarding `O=C(/C=C/c1ccco1)Nc1nc(-c2ccccn2)cs1`, the 50% effective concentration (EC50) was 0.362 µM.

For `O=[N+]([O-])c1ccc(-c2nc(Nc3cccc(O)c3)c3ccccc3n2)cc1`, the EC50 was 10.7 µM. In the case of `Cc1ccc(Oc2ccc3c(c2)C(=O)N(c2cccc4cccnc24)C3=O)cc1` it was 2.91 µM; in that of `O=C(NNC1=C(C(=O)C(F)(F)F)CCC1)c1ccccc1O`, 0.724 µM; in that of `Cc1nn(C)c(Cl)c1CN1CCCC(C(=O)Nc2ccc(-c3cscn3)cc2)C1` (stereo not drawn), > 15 µM (inactive).

Regarding `O=c1c2ccccc2c(-c2ccccc2)nn1Cc1c(Cl)cccc1Cl`, the concentration giving a half-maximal response (EC50) is 6.08 µM. In the case of `Cc1ccc(C)c(NC(=S)N/N=C2/CCCCc3ccccc32)c1` it was 0.643 µM; in that of `O=C(Nc1cc(Cl)cc(Cl)c1)Nc1cnccn1`, 4.85 µM. On to `CC1CCc2c(sc3nc(C4CC4)nc(N4CCN(C(=O)c5ccco5)CC4)c23)C1` (stereo not drawn), for which the EC50 is 3.84 µM. In the case of `CCc1nnc(NC(=O)c2ccc(S(=O)(=O)N3CCCc4ccccc43)cc2)o1` it was 1.68 µM; in that of `CCn1ccnc1CN1CCc2c([nH]c3ccccc23)C1C1CCCCC1` (stereo not drawn), 2.02 µM.

In the case of `CCCCNc1c(-c2ccc(OC)c(SC3CCCCC3)c2)nc2cc(C)ccn12`, the 50% effective concentration (EC50) is 3.89 µM. In the case of `CCc1nc(N)nc(N)c1-c1ccc(Cl)cc1` it was 3.99 µM; in that of `CCOC(=O)c1cccnc1SCC(=O)NC(C)CC` (stereo not drawn), > 15 µM (inactive); in that of `O=C(NNC(=O)c1cc(-c2ccc(Cl)c(Cl)c2)nc2ccccc12)Nc1ccccc1`, 4.83 µM. In the case of `Cc1nnc(-c2ccccc2)c(=O)n1/N=C/c1c(O)ccc2ccccc12` it was 4.37 µM.

Consider `COc1ccc(CC(=O)N/N=C/c2cc([N+](=O)[O-])cc(Br)c2O)cc1`, for which the concentration for a half-maximal effect (EC50) is 4.91 µM. In the case of `O=C(N/N=C/c1c(O)n(Cc2ccco2)c(=O)[nH]c1=O)c1ccccc1O` it was 2.81 µM; in that of `COc1c(N2CCN(C(=S)Nc3ccccc3F)C(C)C2)c(F)cc2c(=O)c(C(=O)O)cn(C3CC3)c12` (stereo not drawn), 2.67 µM. In the case of `Nc1nc(N)c(C=Nc2ccc(Br)cc2)c(Nc2ccc(Br)cc2)n1` it was 1.69 µM; in that of `Nc1c(C(=O)OCc2ccccc2)c2nc3ccccc3nc2n1Cc1cccs1`, 5.04 µM.

Regarding `O=C(O)c1ccc(S(=O)(=O)/N=C2\C=C(Nc3ccccc3F)C(=O)c3ccccc32)cc1`, the half-maximal effective concentration (EC50) is 3.1 µM. The same measure for `Cc1cc(NC(=O)c2sccc2C)n(-c2nc3ccccc3[nH]2)n1`: 2.81 µM; for `O=C(O)c1cccc2c(-c3ccccc3)c(-c3ccccc3)[nH]c12`: 8.51 µM; for `COC(=O)[C@@]12CCCN1[C@H](c1ccc(-c3cccc(Cl)c3)c(OC)c1)[C@H]1C(=O)N(C)C(=O)[C@H]12`: > 15 µM (inactive). The same measure for `O=C(Cc1csc(Nc2nc(=S)[nH]c3ccccc23)n1)NCCCN1CCN(c2cccc(Cl)c2)CC1`: 6.12 µM.

`COC(=O)CSc1nnc(-c2cnccn2)n1C`: the EC50 was > 15 µM (inactive). In the case of `Cc1cc(/C=C2\SC(=S)NC2=O)c(C)n1-c1cccc(O)c1` it was 3.06 µM; in that of `Cc1ccccc1-c1cc2nc(-c3ccc([N+](=O)[O-])cc3)cc(=O)n2[nH]1`, 11.9 µM; in that of `O=c1c2cn[nH]c2nc(SCc2c(F)cccc2F)n1-c1ccc(Cl)cc1`, 11.1 µM.

As for `O=C(CNc1ccc2ccccc2c1)N/N=C/c1ccc([N+](=O)[O-])o1`, the EC50 was 14.3 µM. As to `Cc1[nH]n2c(=O)cc(C(C)(C)C)nc2c1-c1ccccc1`, the EC50 is 2.77 µM. In the case of `Cc1cc2c(cc1C)CSC(c1c(O)ccc3ccccc13)SC2` it was 2.08 µM; in that of `O=C(Oc1c(Cl)cc(Cl)c2cccnc12)c1cccs1`, 1.08 µM.

Consider `C=CCn1c(NC(=O)c2ccc(C)cc2)nc2ccccc21`, for which the EC50 is 9.75 µM. In the case of `S=C1NC[C@H](CC2CCCCC2)N1CC1CCCCC1` it was 7.69 µM; in that of `CC(C(=O)NC1C(=O)N2C(C(=O)O)=C(CSc3nnnn3C)CSC12)n1cc(Br)cn1` (stereo not drawn), < 0.06 µM; in that of `Cc1nc(-c2ccccn2)nc(SCC(=O)c2ccccc2)c1Cl`, 0.811 µM.

Consider `CC(Oc1ccc(F)cc1)C(=O)Nc1ccccc1N1CCCCC1` (stereo not drawn), for which the concentration for a half-maximal effect (EC50) was 5.01 µM.

For the compound `CSc1ccc(S(=O)(=O)NCC(=O)OCC(=O)N2CCCC2=O)cc1[N+](=O)[O-]`, the EC50 was 9.29 µM. As for `CN(C)/C=C1\SC(=S)N(c2ccc(Br)cc2)C1=O`, the EC50 is 5.37 µM. As to `O=C1C=CC(=O)N1CCNc1ncc(C(F)(F)F)cc1Cl`, the concentration for a half-maximal effect (EC50) was 10.4 µM. With `O=C(CN(c1cccc(Br)c1)S(=O)(=O)c1ccccc1)N/N=C/c1cc([N+](=O)[O-])ccc1O`, the EC50 was 0.441 µM. With `CCC(=O)NC(c1ccc(C)cc1)c1cc([N+](=O)[O-])c2cccnc2c1O` (stereo not drawn), the EC50 is 1.31 µM.

As for `Cc1ccc(C(=O)/C=C/C(=O)c2ccc(C)cc2)cc1`, the EC50 is 3.61 µM. In the case of `O=C(c1ccccc1)c1cc2ccc(O)cc2oc1=O` it was 6.03 µM; in that of `COc1cc(OC)c(NC(=O)c2sc3ncn(CC(=O)N4CCN(c5ccccn5)CC4)c(=O)c3c2C)cc1Cl`, 6.52 µM; in that of `CCOC(=O)c1c(NC(=S)NCCc2ccccc2)sc2c1CC(C(C)C)OC2` (stereo not drawn), 0.602 µM. In the case of `Cc1c(CCOC(=O)C2C3CC4CC(C3)CC2C4)sc[n+]1CC(=O)c1ccc(Br)cc1` (stereo not drawn) it was 7.28 µM.

With `C[C@@H]1CC[C@@]2(OC1)O[C@H]1C[C@H]3[C@@H]4CC=C5C[C@@H](O)[C@H](O)C[C@]5(C)C4CC[C@]3(C)[C@H]1[C@@H]2C` (stereo partly drawn), the EC50 is 4.12 µM. The same measure for `CC(C)CC(=O)NC(=S)NNC(=O)c1ccc(NC(=O)C2CCCCC2)cc1`: 0.546 µM; for `CCOc1ccc(NS(=O)(=O)c2cc(NC(=O)c3ccc(C)cc3)ccc2Cl)cc1`: 3.72 µM. The same measure for `COc1ccc(-c2sc3ccc(OC)cc3c2C#CCCO)cc1`: 9.27 µM.

In the case of `CCc1ccc(/C=C/C(=O)c2cc(Br)ccc(=O)c2O)cc1`, the concentration for a half-maximal effect (EC50) is 0.417 µM. In the case of `CSc1ccccc1-c1n[nH]c(=S)o1` it was > 5 µM (inactive); in that of `Cc1ccc(S(=O)(=O)Nc2cccc3ncccc23)s1`, 2.87 µM. In the case of `COC(=O)c1ccc2[nH]c3cccc(/C(=C/c4ccccc4)c4ccccc4)c3c2c1` it was 1.12 µM; in that of `CN(C)/C=C(\C=N\OCc1ccc(Cl)cc1Cl)C(=O)Nc1ccc(Cl)c(Cl)c1`, 0.803 µM. The same measure for `CC1(C)CC[C@]2(C(=O)O)CC[C@]3(C)C(=CCC4[C@@]5(C)CC[C@H](O)C(C)(C)C5CC[C@]43C)C2C1` (stereo partly drawn): 2.69 µM; for `CCN1/C(=C/C(C)=C/c2sc3ccccc3[n+]2CC)Sc2ccccc21`: 2.03 µM; for `COc1ccc(-c2cc(C3CCN(c4ncccc4[N+](=O)[O-])CC3)[nH]n2)cc1`: 5.01 µM. On to `Cc1cc(C)c(NC(=O)c2oc3ccccc3c2COc2ccccc2)c(C)c1`, for which the concentration giving a half-maximal response (EC50) is 14.8 µM.

For the compound `S=c1[nH]nc(-c2cc3c(s2)-c2ccccc2CC3)o1`, the 50% effective concentration (EC50) was 3.87 µM. In the case of `COc1ccc(S(=O)(=O)N2CCN=C2SCc2cccc(C)c2)cc1` it was > 15 µM (inactive); in that of `CCCCc1nc(NCc2ccccc2)c(C#N)c2c1CCCC2`, 8.22 µM; in that of `c1ccc(-c2nc(NCc3ccco3)c3ccccc3n2)nc1`, 4.7 µM. In the case of `CCOC(=O)c1ccc(-c2ccc3c(=O)c4ccccc4n(C)c3c2)cc1F` it was 4.15 µM; in that of `O=C(N/N=C/c1cc(Br)cc(Br)c1O)c1cccc(S(=O)(=O)N2CCOCC2)c1`, 1.17 µM; in that of `O=C(Nc1ccc(F)cc1)c1nc2c(nnn2Cc2cccc3ccccc23)c(=O)[nH]1`, 2.44 µM. In the case of `Cc1ccc(-c2nc3c(Cl)cc(Cl)cc3c(=O)n2O)cc1` it was 0.808 µM; in that of `CC(=O)[C@]1(O)Cc2c(O)c3c(c(O)c2[C@@H](O[C@H]2C[C@H](N)[C@H](O)[C@H](C)O2)C1)C(=O)c1ccccc1C3=O`, 1.13 µM; in that of `Cc1ccc2sc(NNC(=O)c3cc(-c4cccs4)nc4ccccc34)nc2c1C`, 0.859 µM. Take `CCn1nc(-c2ccccc2)nc2c(=O)n(C)c(=O)nc1-2`: the EC50 is 1.54 µM.

In the case of `O=C(Nc1nc(N2C(=O)c3ccccc3C2=O)n(-c2ccccc2)n1)c1ccc(Cl)cc1`, the EC50 was 10.3 µM.

With `COc1ccc(C2C(C(=O)c3ccccc3)=C(C)Nc3nc4ccccc4n32)c(OC)c1` (stereo not drawn), the 50% effective concentration (EC50) is 6.1 µM.

`C/C(=N\Nc1nc2ccccc2[nH]1)c1ccc2c(c1)OCO2`: the EC50 was 4.28 µM.

As to `CC(=O)NC(c1ccc(Cl)cc1Cl)c1ccc2cccnc2c1O` (stereo not drawn), the EC50 was 4.2 µM. For the compound `Cc1ccc(C(=O)NC(=S)NNC(=O)c2cccc([N+](=O)[O-])c2)cc1`, the EC50 was 1.69 µM. In the case of `CC1CC(NC(=O)c2c(O)nc3sccn3c2=O)CC(C)(C)C1` (stereo not drawn), the EC50 is 7.03 µM.

Take `N/C(=N\NC(=O)c1sccc1OCc1ccc(Cl)cc1Cl)c1ccccn1`: the EC50 is 3.32 µM.

`CCCN(CC(=O)Nc1cc(Cl)cc(Cl)c1)CC(=O)Nc1ccc(F)c(F)c1F`: the EC50 was 4.87 µM.

On to `O=C(N/N=C/c1c(O)n(-c2ccccc2Cl)c(=O)c2ccccc12)C1COc2ccccc2O1` (stereo not drawn), for which the EC50 is 3.74 µM. With `COc1cc(OC)cc(-c2cc3nc4c(c(N5CCN(c6ncccn6)CC5)n3n2)CCCC4)c1`, the EC50 was 6.28 µM. With `O=C(N/N=C/c1cc(Cl)ccc1O)c1cccnc1`, the EC50 is 1.55 µM.
